“Also recorded” adds a separate entry of the source.
Assays:
KMS-34 cells = test: In vitro long-term proliferation (LTP) 14-day assay, KMS-34; format: cell-based, human; conditions: FIG. 2C, comparison of enantiomers
KMS11 TKO cells = test: In vitro long-term proliferation (LTP) 14-day assay, KMS11 TKO; format: cell-based, human; conditions: KMS11 TKO (non-translocated WHSC1 allele only), 14 days
Text: In Vitro Long-Term Proliferation (LTP) Assay

H3K36me3 / H3K36me2 = test: Western blot of H3K36 methyl marks in KMS-34 cells; format: cell-based, human; conditions: KMS-34, after 14 days
Experimental: Cells were pelleted, washed with ice-cold 1×PBS, resuspended in ice-cold NP40 buffer, and incubated on ice for 30 minutes before sonication (Amplitude 30%/5 sec×1). […] Blots were imaged using the Odyssey Imaging System (LICOR Biosciences).

KMS11 tumors = format: in vivo
Experimental: NOD SCID mice received 1×10^7 cells (0.1 mL cell suspension) subcutaneously in the right flank. […] The maximal treatment length was 28 days. Tumor volumes (twice weekly) and body weight (daily) were recorded throughout the experiment. On day 7 or day 28 during the studies, mice were sampled in a pre-specified fashion. Sampling included nonterminal retro-orbital bleeds and full volume blood collection via terminal cardiac puncture under CO2 anesthesia. Blood samples were processed for plasma, with K2-EDTA as anticoagulant, and PBMCs isolated. The samples were frozen at −80° C. and stored before analysis. Tumors were harvested from specified mice under RNase-free conditions and snap frozen in liquid nitrogen. Bone marrow was flushed from the femur using 1×PBS, strained over a 40 um nylon strainer, and flash frozen. Histones were extracted from tumors, bone marrow, and PBMCs as previously described.
(§1) Fluorescent-Based ELISA Assay (Fluroimmunoassay (FIA) Detection of Anti-Histone H3 Tri-Methyl K36)
Histones were prepared in coating buffer and added directly to high-binding 96 well plates. Plates were left at 4° C. overnight to allow histones to adhere. […] Plates were imaged on the Odyssey Imaging System (LI-COR Biosciences) using both 700 nm and 800 nm channels. The average of the ratio values for each test sample was calculated by dividing the 800 nm (H3K36me3) value by the 700 nm value (total H3) and used to determine the percent of H3K36me3 from vehicle.

MM.1S tumors = test: MM.1S non-t(4;14) multiple myeloma xenograft; format: in vivo, CB17 SCID mice
Experimental: CB17 SCID mice were inoculated subcutaneously in the right flank with MM.1S tumor cells (5×10^6) in 0.2 mL of PBS mixed with Matrigel (50:50). After 18 days, mice bearing 100 to 150 mm^3 tumors were sorted into treatment groups with mean tumor volumes of 103 mm^3 (n=10 mice per group). […] The maximal treatment length was 23 days. Tumor volumes and body weight were recorded twice weekly throughout the experiment. On day 18 or day 41 during the studies, mice were sampled in a pre-specified fashion. Sampling included nonterminal retro-orbital bleeds and full volume blood collection via terminal cardiac puncture under CO2 anesthesia. Blood samples were processed for plasma, with K2-EDTA as anticoagulant, and PBMCs isolated. The samples were frozen at −80° C. and stored before analysis. Tumors were harvested from specified mice under RNase-free conditions and snap frozen in liquid nitrogen. Bone marrow was flushed from the femur using 1×PBS, strained over a 40 um nylon strainer, and flash frozen.
as §1
Histones were prepared in coating buffer and added directly to high-binding 96 well plates. […] The average of the ratio values for each test sample was calculated by dividing the 800 nm (H3K36me3) value by the 700 nm value (total H3) and used to determine the percent of H3K36me3 from vehicle.

[1] = mouse, in vivo
Experimental: Dose Range Finding Studies
(§2) All the procedures related to animal handling, care, and treatment in this study were performed according to the guidelines approved by the Institutional Animal Care and Use Committee of Pharmaron, Beijing, China and following the guidance of the Association for Assessment and Accreditation of Laboratory Animal Care.
(§3) Six to eight-week-old NOD SCID mice were purchased from Beijing HFK Bioscience Co., Ltd. Mice were housed in polycarbonate cages maintained at a temperature of (22+/−3° C.) and relative humidity of 40-70%. Animals had free access to sterile drinking water and irradiation sterilized dry granule food throughout the study.

[2] = 7-day dose range finding study in mice
Experimental: Dose Range Finding Studies
as §2, §3

CC(=O)N1CCN([C@H]2CCC[C@@H](NC(=O)c3cc4c(F)ccc(C)c4[nH]3)C2)CC1 [Cpd. No. 15, N-((1R,3S)-3-(4-acetylpiperazin-1-yl)cyclohexyl)-4-fluoro-7-methyl-1H-indole-2-carboxamide]
proliferation defects (KMS-34 cells): proliferation defects
proliferation effect (KMS11 TKO cells): no proliferation effects
H3K36me2 level (H3K36me3 / H3K36me2): unaffected; also recorded: remained unaltered
H3K36me3 level (H3K36me3 / H3K36me2): dose-dependent decrease; also recorded: reduced
effect on body weight (KMS11 tumors; 31.25 mg/kg and 62.5 mg/kg, 28 days BID): minimal effects on body weight
H3K36me3 in histones from tumor (fluorescent-based ELISA) (KMS11 tumors; day 28, all doses): complete reduction
tumor response (KMS11 tumors; oral, 28 days, dose-dependent): robust tumor growth regression
H3K36me3 in MM.1S tumor samples (fluorescent-based ELISA) (MM.1S tumors; BID oral dosing): reduction; also recorded: dose dependent decrease
body weight (MM.1S tumors; all doses, 23 continuous days BID): minimal body weight loss; also recorded: minimal changes in body weight
tolerability [1]: very well tolerated
body weight ([2]; 62.5 and 125 mg/kg BID, 7 days, versus vehicle control): No body weight loss
H3K36me3 levels in naïve bone marrow ([2]; oral dosing, 7-day study): substantial reduction

— US20230049113A1, “METHODS OF TREATING WHSC1-OVEREXPRESSING CANCERS BY INHIBITING SETD2” (priority 2018, published 2023)
